According to patent publication US8481551B2, “Gyrase and topoisomerase IV inhibitors” (Vertex Pharmaceuticals Incorporated, priority 2011, dated 2013):
Where a name gives a salt, the structure may show the parent alone.

Key:
Acinetobacter baumannii = experiment: Gyrase MIC against Gram negatives, microdilution broth method (Protocol 2); type: cell-based; conditions: for MIC90: Acinetobacter baumannii, 12 isolates tested
Bacillus subtilis = experiment: Gyrase MIC, microdilution broth method (Protocol 1); type: cell-based
S. aureus (ATCC 29213) = experiment: Neutropenic rat thigh infection model; type: in vivo, Sprague Dawley rats
From the text: Animals: Specific-pathogen-free, male Sprague Dawley rats weighing between 76 to 100 grams were obtained from Charles River Laboratories, Inc. (Wilmington, Mass.) and utilized in this experiment. Animals were allowed to acclimate for a minimum of seven (7) days before study commencement. Bacteria: The methicillin-sensitive Staphylococcus aureus(MSSA) ATCC strain 29213 was utilized for in vivo experimentation. The test isolate was subcultured twice onto standard microbiological agar media (trypticase soy agar with 5% sheep blood). The second transfer was made less than 24 hours before use in the preparation of the thigh infection model inoculum. Neutropenic Rat Thigh Infection Model: To induce neutropenia, rats were treated with the immunosuppressant cyclophosphamide at 150 mg/kg, administered in 1 ml by intraperitoneal (IP) injection, three day prior to infection. Rats were infected by an intramuscular (IM) 0.2 ml injection into both rear thighs with a 10^7 cfu/ml methicillin-sensitive Staphylococcus aureus 29213 suspension in normal saline. After increasing amounts of time (2-26 hours) the two rear thighs of each animal were harvested, rinsed with sterile saline, weighed, then placed in 50 ml sterile normal saline and placed on wet ice until homogenization. Approximately one-half of the total homogenized sample volume was passed through a large pore filter (to remove cartilage and large clumped pieces of tissue), diluted in saline and cultured onto agar media plates (trypticase soy agar with 5% sheep blood). All culture plates were incubated at approximately 37° C. for 18-24 hours. Colony-forming units were enumerated (in cfu/ml of homogenate) and the median for each treatment and control group was calculated. […] The median cfu/ml per group was compared to the initial bacterial density at 2 hours (Early Control) or that of the time-matched vehicle control group (Late Control; LC) group harvested simultaneously. […] After 2 hours a single group of rats (Early Control (EC) was euthanized and the thighs harvested, homogenized and plated to quantitate S. aureus burdens. The additional infected rats were treated by oral gavage with Vehicle at 10 ml/kg (20% Cavitron/1% HPMCAS-MG; […] The 8-hour treatment groups received a single treatment (QD) and were euthanized and thighs collected for cfu determination 8 hours post treatment (QD), while the 24-hour treatment groups received 2 doses 12 hours apart (q12 h) and were euthanized and thighs collected 24 hours post treatment. […] After 2 hours a single group of rats (Early Control (EC)) was euthanized and the thighs harvested, homogenized and plated to quantitate S. aureus burdens. The additional infected rats were treated by oral gavage with Vehicle at 10 ml/kg (10% Vitamin E/TPGS; […] The 8-hour treatment groups received a single treatment (QD) and were euthanized and thighs collected for cfu determination 8 hours post treatment (QD), while the 24 hour treatment groups received 2 doses 12 hours apart (q12 h) and were euthanized and thighs collected 24 hours post treatment.

[1] = ATCC19606, Acinetobacter baumannii ATCC 19606
[2] = ATCCBAA1710, Acinetobacter baumannii ATCC BAA-1710
[3] = ATCC6051, Bacillus subtilis (168) ATCC 6051
[4] = ATCC6638, Bacillus subtilis ATCC 6638
[5] = 8 hours after the first dose, 10 mg/kg oral
[6] = Table 8: 10 mg/kg oral, QD, 8 Hours
[7] = Table 8: 10 mg/kg oral, q12 h, 24 Hours
[8] = Table 8: 30 mg/kg oral, QD, 8 Hours
[9] = Table 8: 30 mg/kg oral, q12 h, 24 Hours
[10] = Table 8: 60 mg/kg oral, QD, 8 Hours
[11] = Table 8: 60 mg/kg oral, q12 h, 24 Hours
[12] = 8 hours after the first dose, 60 mg/kg oral
[13] = 8 hours after the first dose, 100 mg/kg oral
[14] = Table 9: 10 mg/kg oral, QD, 8 Hours
[15] = Table 9: 10 mg/kg oral, q12 h, 24 Hours
[16] = Table 9: 60 mg/kg oral, QD, 8 Hours
[17] = Table 9: 60 mg/kg oral, q12 h, 24 Hours
[18] = Table 9: 100 mg/kg oral, QD, 8 Hours
[19] = Table 9: 100 mg/kg oral, q12 h, 24 Hours

CCNC(=O)Nc1nc2cc(-c3cnc(C(C)(C)O)nc3)c(F)c([C@H]3CCCO3)c2[nH]1 [Compound 23A, methanesulfonic acid salt of 1-ethyl-3-[6-fluoro-5-[2-(1-hydroxy-1-methyl-ethyl)pyrimidin-5-yl]-7-[(2R)-tetrahydrofuran-2-yl]-1H-benzimidazol-2-yl]urea]
MIC (Acinetobacter baumannii; [1]): 8 µg/mL
MIC (Acinetobacter baumannii; [2]): 6 µg/mL
MIC90 (Acinetobacter baumannii): > 8 µg/mL
MIC (Bacillus subtilis; [3]): 4 µg/mL
MIC (Bacillus subtilis; [4]): 2 µg/mL
bacterial growth compared to early control (S. aureus (ATCC 29213); [5]): held the bacterial growth of SA 29213 to at least the point of stasis
log reduction in burdens compared to time-matched control (S. aureus (ATCC 29213); [5]): ~1.3 log
log reduction in burdens compared to time-matched control (S. aureus (ATCC 29213); 8 hours after the first dose, 30 and 60 mg/kg oral): ~2 log
decrease of bacterial burden compared to early control (S. aureus (ATCC 29213); 8 hours after the first dose, 60 and 100 mg/kg (so in the source)): 0.5-0.6 logs
log reduction compared to early control (S. aureus (ATCC 29213); 24 hours, second dose at 12 hours, 10 mg/kg): approximately 0.8 log
log reductions compared to early control (S. aureus (ATCC 29213); 24 hours, second dose at 12 hours, 30 and 60 mg/kg): 1.1-1.2 log
decrease in bacterial density compared to late control (S. aureus (ATCC 29213); 24 hours, second dose at 12 hours, all treatment groups (10, 30, 60 mg/kg)): 2.4-2.8 logs
Median Thigh Burden (Log cfu/mL) (S. aureus (ATCC 29213); Table 8: 10 mg/kg oral gavage, single treatment (QD), 8 Hours): 5.42 Log cfu/mL
Median Thigh Burden (Log cfu/mL) (S. aureus (ATCC 29213); Table 8: 10 mg/kg oral, 2 doses 12 hours apart (q12 h), 24 Hours): 4.59 Log cfu/mL
Log Difference vs. Early Control (S. aureus (ATCC 29213); [6]): 0.05
Log Reduction vs. Late Control (8-hour) (S. aureus (ATCC 29213); [6]): −1.36
Log Difference vs. Early Control (S. aureus (ATCC 29213); [7]): −0.78
Log Difference vs. Late Control (24-hour) (S. aureus (ATCC 29213); [7]): −2.40
Log Difference vs. Early Control (S. aureus (ATCC 29213); [8]): −0.62
Log Reduction vs. Late Control (8-hour) (S. aureus (ATCC 29213); [8]): −2.02
Median Thigh Burden (Log cfu/mL) (S. aureus (ATCC 29213); [8]): 4.75 Log cfu/mL
Log Difference vs. Early Control (S. aureus (ATCC 29213); [9]): −1.06
Log Difference vs. Late Control (24-hour) (S. aureus (ATCC 29213); [9]): −2.68
Median Thigh Burden (Log cfu/mL) (S. aureus (ATCC 29213); [9]): 4.31 Log cfu/mL
Log Difference vs. Early Control (S. aureus (ATCC 29213); [10]): −0.57
Log Reduction vs. Late Control (8-hour) (S. aureus (ATCC 29213); [10]): −1.97
Median Thigh Burden (Log cfu/mL) (S. aureus (ATCC 29213); [10]): 4.80 Log cfu/mL
Log Difference vs. Early Control (S. aureus (ATCC 29213); [11]): −1.18
Log Difference vs. Late Control (24-hour) (S. aureus (ATCC 29213); [11]): −2.80
Median Thigh Burden (Log cfu/mL) (S. aureus (ATCC 29213); [11]): 4.19 Log cfu/mL

CCNC(=O)Nc1nc2cc(-c3cnc(C(C)(C)O)nc3)cc([C@H]3CCCO3)c2[nH]1 [Compound 13, methanesulfonic acid salt of 1-ethyl-3-[5-[2-(1-hydroxy-1-methyl-ethyl)pyrimidin-5-yl]-7-[(2R)-tetrahydrofuran-2-yl]-1H-benzimidazol-2-yl]urea]
MIC (Acinetobacter baumannii; [1]): > 16 µg/mL
MIC (Acinetobacter baumannii; [2]): > 16 µg/mL
MIC90 (Acinetobacter baumannii): > 8 µg/mL
MIC (Bacillus subtilis; [3]): > 8 µg/mL
MIC (Bacillus subtilis; [4]): > 8 µg/mL
bacterial growth compared to early control (S. aureus (ATCC 29213); [5]): held the bacterial growth of SA 29213 to at least the point of stasis
log reduction in burdens compared to time-matched control (S. aureus (ATCC 29213); [5]): ~1.5 log
decrease of bacterial burden versus early control (S. aureus (ATCC 29213); [12]): ~0.4 logs
log reduction in burdens compared to time-matched control (S. aureus (ATCC 29213); [12]): ~1.7 log
decrease of bacterial burden versus early control (S. aureus (ATCC 29213); [13]): ~0.5 logs
log reduction in burdens compared to time-matched control (S. aureus (ATCC 29213); [13]): 1.8 log
decrease in bacterial density compared to early control (S. aureus (ATCC 29213); 24 hours, second dose at 12 hours, 60 and 100 mg/kg): approximately 1 log
reduction of bacterial density compared to late control (S. aureus (ATCC 29213); 24 hours, 10 mg/kg treatment group): ~1.1 log
cfu levels greater than the early control (S. aureus (ATCC 29213); 24 hours, 30 mg/kg (so in the source), did not appear effective): 0.3 logs
reduction of bacterial density compared to late control (S. aureus (ATCC 29213); 24 hours, 60 mg/kg): 2.85 logs
reduction of bacterial density compared to late control (S. aureus (ATCC 29213); 24 hours, 100 mg/kg): ~3 logs
Median Thigh Burden (Log cfu/mL) (S. aureus (ATCC 29213); Table 9: 10 mg/kg oral gavage, single treatment (QD), 8 Hours): 5.15 Log cfu/mL
Median Thigh Burden (Log cfu/mL) (S. aureus (ATCC 29213); Table 9: 10 mg/kg oral, 2 doses 12 hours apart (q12 h), 24 Hours): 6.02 Log cfu/mL
Log Difference vs. Early Control (S. aureus (ATCC 29213); [14]): −0.15
Log Difference vs. Late Control (8-hour) (S. aureus (ATCC 29213); [14]): −1.49
Log Difference vs. Early Control (S. aureus (ATCC 29213); [15]): 0.72
Log Difference vs. Late Control (24-hour) (S. aureus (ATCC 29213); [15]): −1.14
Log Difference vs. Early Control (S. aureus (ATCC 29213); [16]): −0.35
Log Difference vs. Late Control (8-hour) (S. aureus (ATCC 29213); [16]): −1.69
Median Thigh Burden (Log cfu/mL) (S. aureus (ATCC 29213); [16]): 4.95 Log cfu/mL
Log Difference vs. Early Control (S. aureus (ATCC 29213); [17]): −0.99
Log Difference vs. Late Control (24-hour) (S. aureus (ATCC 29213); [17]): −2.85
Median Thigh Burden (Log cfu/mL) (S. aureus (ATCC 29213); [17]): 4.31 Log cfu/mL
Log Difference vs. Early Control (S. aureus (ATCC 29213); [18]): −0.48
Log Difference vs. Late Control (8-hour) (S. aureus (ATCC 29213); [18]): −1.82
Median Thigh Burden (Log cfu/mL) (S. aureus (ATCC 29213); [18]): 4.82 Log cfu/mL
Log Difference vs. Early Control (S. aureus (ATCC 29213); [19]): −1.13
Log Difference vs. Late Control (24-hour) (S. aureus (ATCC 29213); [19]): −2.99
Median Thigh Burden (Log cfu/mL) (S. aureus (ATCC 29213); [19]): 4.17 Log cfu/mL
